We go through one molecule from PMC7522982, “PKIS deep dive yields a chemical starting point for dark kinases and a cell active BRSK2 inhibitor” (Scientific Reports, 2020).

Usually IC50 stands for the concentration that gives 50% inhibition. Low readings indicate inhibition by little substance, high ones a need for much substance.

Bounds are passed on as bounds.

What all share (experiment): Eurofins kinase enzymatic radiometric assay
Assay type in all cases: biochemical
Holding throughout (set-up): purchased Eurofins
Common to all, as to conditions: Km of ATP, 9-point curve in duplicate

One assay has as its target CHEK2 (Homo sapiens, UniProt O96017). The text has this:
(§1) Due to our interest in the activity of GW296115 on several understudied IDG kinases, we collected full dose–response curves for all wild type kinases inhibited ≥ 75% in the DiscoverX panel that were offered by Eurofins. Having data in orthogonal formats is a powerful way to confirm inhibitory activity and adds rigor to our results. Eurofins has kinase enzymatic radiometric assays for 35 of the kinases on this list (Table S2) and a kinase enzymatic LANCE assay for one additional kinase (MAP2K5/MEK5).
(§2) Eurofins kinase enzymatic radiometric assays were carried out at the Km of ATP in dose–response (9-pt curve in duplicate) for each kinase for which it was offered.

The next assay deals with STK17A/DRAK1 (Homo sapiens, UniProt Q9UEE5).
Text: as §1, §2

The target in the next assay is T1, STK17B/DRAK2 (Homo sapiens, UniProt O94768).
T1 sequence (O94768 1-372): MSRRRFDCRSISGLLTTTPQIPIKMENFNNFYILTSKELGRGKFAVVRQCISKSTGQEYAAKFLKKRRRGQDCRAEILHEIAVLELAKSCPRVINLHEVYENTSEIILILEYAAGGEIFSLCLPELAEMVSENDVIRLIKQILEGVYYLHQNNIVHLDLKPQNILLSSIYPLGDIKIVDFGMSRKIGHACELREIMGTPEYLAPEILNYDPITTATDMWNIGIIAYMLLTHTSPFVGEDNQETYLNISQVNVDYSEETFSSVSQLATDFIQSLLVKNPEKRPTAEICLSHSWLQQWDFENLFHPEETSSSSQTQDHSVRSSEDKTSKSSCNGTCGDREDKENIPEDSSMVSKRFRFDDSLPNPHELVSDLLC
Text: as §1, §2

Another assay concerns the target AURKB (Homo sapiens, UniProt Q96GD4).
Text: as §1, §2

The target in the next assay is DAPK3/ZIPK (Homo sapiens, UniProt O43293).
Text: as §1, §2

A further assay deals with PIM2 (Homo sapiens, UniProt Q9P1W9).
Text: as §1, §2

The next assay addresses T2, BRSK1 (Homo sapiens, UniProt Q8TDC3).
T2 sequence (Q8TDC3 1-778): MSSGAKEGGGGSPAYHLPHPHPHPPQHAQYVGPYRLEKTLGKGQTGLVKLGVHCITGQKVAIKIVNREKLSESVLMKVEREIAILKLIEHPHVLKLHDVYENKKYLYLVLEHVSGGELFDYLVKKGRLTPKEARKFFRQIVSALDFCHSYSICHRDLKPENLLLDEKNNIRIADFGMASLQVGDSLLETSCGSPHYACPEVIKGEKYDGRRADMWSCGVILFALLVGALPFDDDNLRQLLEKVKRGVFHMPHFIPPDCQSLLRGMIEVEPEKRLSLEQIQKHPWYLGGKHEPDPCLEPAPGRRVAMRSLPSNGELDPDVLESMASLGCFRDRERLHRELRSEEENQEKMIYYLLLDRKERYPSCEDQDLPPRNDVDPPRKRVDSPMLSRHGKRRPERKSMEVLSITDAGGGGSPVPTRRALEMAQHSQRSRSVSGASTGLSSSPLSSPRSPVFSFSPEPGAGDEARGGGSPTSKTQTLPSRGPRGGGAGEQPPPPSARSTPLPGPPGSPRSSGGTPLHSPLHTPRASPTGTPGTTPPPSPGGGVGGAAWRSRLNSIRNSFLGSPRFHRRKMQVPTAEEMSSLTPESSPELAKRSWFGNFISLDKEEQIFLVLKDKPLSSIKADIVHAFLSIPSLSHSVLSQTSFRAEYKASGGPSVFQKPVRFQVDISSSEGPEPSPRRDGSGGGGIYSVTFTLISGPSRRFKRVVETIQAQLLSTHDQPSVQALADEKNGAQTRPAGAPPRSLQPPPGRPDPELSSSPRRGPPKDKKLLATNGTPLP
Text: as §1, §2

The next assay addresses MAP4K4/HGK (Homo sapiens, UniProt O95819).
Text: as §1, §2

Another assay addresses AURKC (Homo sapiens, UniProt Q9UQB9).
Text: as §1, §2

The target in another assay is STK33 (Homo sapiens, UniProt Q9BYT3).
Text: as §1, §2

The next assay concerns the target PIM3 (Homo sapiens, UniProt Q86V86).
Text: as §1, §2

For another assay, the target named is PLK4 (Homo sapiens, UniProt O00444).
Text: as §1, §2

For another assay, the target named is PDGFRB (Homo sapiens, UniProt P09619).
Text: as §1, §2

A further assay addresses TNIK (Homo sapiens, UniProt Q9UKE5).
Text: as §1, §2

The next assay addresses MYLK/MLCK/smMLCK (Homo sapiens, UniProt Q15746).
Text: as §1, §2

Chain of DAPK3/ZIPK (O43293 whole entry): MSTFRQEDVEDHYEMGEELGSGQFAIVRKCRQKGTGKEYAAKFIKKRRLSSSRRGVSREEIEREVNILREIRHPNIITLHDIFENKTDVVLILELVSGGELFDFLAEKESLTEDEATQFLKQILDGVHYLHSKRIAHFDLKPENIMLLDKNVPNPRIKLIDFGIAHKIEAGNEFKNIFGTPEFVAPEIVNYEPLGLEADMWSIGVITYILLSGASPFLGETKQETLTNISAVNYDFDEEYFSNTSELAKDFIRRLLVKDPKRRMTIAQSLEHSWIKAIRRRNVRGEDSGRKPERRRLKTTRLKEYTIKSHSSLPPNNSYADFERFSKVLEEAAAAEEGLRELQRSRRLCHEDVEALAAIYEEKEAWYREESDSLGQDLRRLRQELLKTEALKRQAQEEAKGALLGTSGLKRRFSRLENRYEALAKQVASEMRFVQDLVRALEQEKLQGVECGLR
Chain of PLK4 (O00444 whole entry): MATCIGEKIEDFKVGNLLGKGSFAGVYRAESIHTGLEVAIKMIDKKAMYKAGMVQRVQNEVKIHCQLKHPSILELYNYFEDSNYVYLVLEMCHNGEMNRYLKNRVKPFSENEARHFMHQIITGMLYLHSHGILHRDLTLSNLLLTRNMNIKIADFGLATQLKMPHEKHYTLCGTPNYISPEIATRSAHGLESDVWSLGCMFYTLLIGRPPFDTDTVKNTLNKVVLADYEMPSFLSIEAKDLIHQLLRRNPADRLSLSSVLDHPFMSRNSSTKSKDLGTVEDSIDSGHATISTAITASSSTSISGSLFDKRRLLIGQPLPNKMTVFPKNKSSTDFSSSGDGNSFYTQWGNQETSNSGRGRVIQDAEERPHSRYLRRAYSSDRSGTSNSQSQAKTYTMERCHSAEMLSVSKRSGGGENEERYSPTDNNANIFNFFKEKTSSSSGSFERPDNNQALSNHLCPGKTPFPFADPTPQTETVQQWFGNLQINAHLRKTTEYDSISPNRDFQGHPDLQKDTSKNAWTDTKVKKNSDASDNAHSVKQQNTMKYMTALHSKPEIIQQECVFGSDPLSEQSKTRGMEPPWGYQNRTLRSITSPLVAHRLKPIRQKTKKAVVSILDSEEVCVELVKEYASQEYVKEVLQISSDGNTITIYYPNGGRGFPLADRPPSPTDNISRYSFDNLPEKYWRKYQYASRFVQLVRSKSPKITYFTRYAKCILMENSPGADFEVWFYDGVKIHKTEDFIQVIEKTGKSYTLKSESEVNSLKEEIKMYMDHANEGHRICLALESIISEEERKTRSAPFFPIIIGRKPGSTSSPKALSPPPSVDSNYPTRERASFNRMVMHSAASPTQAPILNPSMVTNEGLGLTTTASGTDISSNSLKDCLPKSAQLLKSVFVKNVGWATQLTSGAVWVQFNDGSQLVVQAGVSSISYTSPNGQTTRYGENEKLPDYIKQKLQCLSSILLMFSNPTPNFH
Chain of MYLK/MLCK/smMLCK (Q15746 whole entry): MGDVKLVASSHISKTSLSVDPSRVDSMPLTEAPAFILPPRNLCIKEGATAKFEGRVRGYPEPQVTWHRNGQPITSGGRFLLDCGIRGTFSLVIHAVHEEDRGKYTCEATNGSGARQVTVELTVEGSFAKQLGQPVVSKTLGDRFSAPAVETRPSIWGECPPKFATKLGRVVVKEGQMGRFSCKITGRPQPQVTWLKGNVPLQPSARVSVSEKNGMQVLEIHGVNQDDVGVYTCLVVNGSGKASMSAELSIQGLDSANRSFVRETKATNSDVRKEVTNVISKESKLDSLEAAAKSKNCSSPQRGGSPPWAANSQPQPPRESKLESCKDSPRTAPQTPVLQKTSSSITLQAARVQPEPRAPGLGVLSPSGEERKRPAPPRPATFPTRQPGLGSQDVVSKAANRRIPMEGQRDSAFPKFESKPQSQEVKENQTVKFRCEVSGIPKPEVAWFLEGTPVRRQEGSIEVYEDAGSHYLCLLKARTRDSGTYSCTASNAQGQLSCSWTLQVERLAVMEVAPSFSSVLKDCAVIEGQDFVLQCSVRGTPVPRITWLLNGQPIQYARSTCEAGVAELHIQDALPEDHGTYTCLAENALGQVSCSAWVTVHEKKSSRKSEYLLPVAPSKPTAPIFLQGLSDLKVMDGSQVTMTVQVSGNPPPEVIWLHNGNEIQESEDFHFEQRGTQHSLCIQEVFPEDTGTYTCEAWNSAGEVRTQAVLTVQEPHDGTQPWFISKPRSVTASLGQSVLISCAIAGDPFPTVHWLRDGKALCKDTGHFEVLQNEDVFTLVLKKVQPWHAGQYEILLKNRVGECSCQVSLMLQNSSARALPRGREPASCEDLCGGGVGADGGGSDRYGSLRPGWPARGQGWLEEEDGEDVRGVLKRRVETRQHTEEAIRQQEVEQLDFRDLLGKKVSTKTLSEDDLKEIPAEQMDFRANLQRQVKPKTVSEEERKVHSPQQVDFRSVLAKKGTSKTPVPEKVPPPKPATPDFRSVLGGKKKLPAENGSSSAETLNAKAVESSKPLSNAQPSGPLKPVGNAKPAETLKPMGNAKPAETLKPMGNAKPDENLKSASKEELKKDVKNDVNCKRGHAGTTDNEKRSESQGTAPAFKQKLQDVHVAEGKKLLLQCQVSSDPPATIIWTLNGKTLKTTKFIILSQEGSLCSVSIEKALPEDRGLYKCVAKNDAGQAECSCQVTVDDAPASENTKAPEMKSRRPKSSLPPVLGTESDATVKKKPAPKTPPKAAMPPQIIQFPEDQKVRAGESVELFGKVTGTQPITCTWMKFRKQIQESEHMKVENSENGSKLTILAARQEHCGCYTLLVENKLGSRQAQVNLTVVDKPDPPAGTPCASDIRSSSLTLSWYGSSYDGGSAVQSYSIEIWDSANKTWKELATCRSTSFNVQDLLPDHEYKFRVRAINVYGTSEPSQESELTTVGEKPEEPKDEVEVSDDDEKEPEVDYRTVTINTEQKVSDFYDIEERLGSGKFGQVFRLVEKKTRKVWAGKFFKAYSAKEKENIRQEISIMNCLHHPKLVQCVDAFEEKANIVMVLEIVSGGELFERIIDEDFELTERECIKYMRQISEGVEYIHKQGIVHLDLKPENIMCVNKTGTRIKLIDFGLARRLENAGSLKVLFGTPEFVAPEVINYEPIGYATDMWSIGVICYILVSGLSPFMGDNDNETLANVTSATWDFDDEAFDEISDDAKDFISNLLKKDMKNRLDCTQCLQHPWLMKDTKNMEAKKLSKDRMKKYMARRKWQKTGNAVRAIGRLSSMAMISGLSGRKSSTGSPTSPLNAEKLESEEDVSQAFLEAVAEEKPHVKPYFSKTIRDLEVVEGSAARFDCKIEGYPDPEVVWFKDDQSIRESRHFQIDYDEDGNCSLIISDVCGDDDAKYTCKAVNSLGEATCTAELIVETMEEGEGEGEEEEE
Chain of STK17A/DRAK1 (Q9UEE5 whole entry): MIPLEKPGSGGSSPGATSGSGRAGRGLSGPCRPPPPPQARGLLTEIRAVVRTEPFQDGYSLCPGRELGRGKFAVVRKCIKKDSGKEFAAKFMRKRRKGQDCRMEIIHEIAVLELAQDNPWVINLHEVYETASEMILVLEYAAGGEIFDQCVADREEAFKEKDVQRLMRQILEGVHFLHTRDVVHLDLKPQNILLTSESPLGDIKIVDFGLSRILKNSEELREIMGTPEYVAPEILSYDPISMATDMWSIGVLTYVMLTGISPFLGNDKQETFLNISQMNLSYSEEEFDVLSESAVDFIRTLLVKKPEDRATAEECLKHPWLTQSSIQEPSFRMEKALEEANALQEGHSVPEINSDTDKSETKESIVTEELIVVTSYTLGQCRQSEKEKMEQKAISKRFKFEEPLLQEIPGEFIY
Chain of AURKC (Q9UQB9 whole entry): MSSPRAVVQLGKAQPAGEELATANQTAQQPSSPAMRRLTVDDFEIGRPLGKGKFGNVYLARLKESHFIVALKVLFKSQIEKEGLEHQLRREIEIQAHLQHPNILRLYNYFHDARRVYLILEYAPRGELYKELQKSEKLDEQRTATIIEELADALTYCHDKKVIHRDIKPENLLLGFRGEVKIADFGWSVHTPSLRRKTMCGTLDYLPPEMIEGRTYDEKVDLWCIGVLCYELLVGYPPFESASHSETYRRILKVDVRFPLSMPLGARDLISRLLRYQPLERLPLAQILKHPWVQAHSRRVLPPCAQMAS
Chain of CHEK2 (O96017 whole entry): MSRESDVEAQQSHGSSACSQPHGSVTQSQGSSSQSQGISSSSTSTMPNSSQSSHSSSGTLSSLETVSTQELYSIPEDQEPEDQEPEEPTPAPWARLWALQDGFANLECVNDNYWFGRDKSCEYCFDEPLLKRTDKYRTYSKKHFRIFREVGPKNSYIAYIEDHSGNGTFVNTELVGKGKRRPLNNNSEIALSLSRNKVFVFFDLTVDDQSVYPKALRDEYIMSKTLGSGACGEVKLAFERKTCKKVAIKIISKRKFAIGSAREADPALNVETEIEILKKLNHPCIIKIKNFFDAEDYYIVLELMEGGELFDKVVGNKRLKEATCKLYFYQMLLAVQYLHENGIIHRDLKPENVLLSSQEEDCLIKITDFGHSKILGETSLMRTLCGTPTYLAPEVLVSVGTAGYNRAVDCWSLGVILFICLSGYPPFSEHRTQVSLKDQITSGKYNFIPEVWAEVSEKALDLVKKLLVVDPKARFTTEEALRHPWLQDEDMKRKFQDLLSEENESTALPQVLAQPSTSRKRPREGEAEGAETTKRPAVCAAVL

With `COc1ccc2[nH]c3c4[nH]c5ccc(OC)cc5c4c4c(c3c2c1)C(=O)NC4=O` [GW296115], the IC50 at CHEK2 came out at 2.6 nM; at STK17A/DRAK1, 28 nM; on STK17B/DRAK2, 5.5 nM; on AURKB, 94 nM; against DAPK3/ZIPK, 100 nM; against PIM2, 10 nM. Besides, the concentration for half-maximal inhibition (IC50) on BRSK1 amounted to 21 nM; against MAP4K4/HGK, 29 nM; on AURKC, 4100 nM; at STK33, 110 nM; against PIM3, 89 nM; on PLK4, 17 nM. In addition, the IC50 against PDGFRB was above 10000 nM; on TNIK it was 10 nM; against MYLK/MLCK/smMLCK, 49 nM.
